The values that follow come from PMC5663397, “A composite docking approach for the identification and characterization of ectosteric inhibitors of cathepsin K” (PLoS ONE, 2017).

Molecules are shown by their SMILES. Several values for one entry are separate records, joined by “and”; a condition that tells them apart may be missing. Equal values may be shown once. Entries after “also recorded” stand apart in the source; their conditions may differ. Where a name gives a salt, the structure may show the parent alone. Read-outs that look alike come from different tables or passages of the source.

By inhibition is commonly meant the change of the read-out against control, counted positive when it falls. A word on the IC50: it is the midpoint of a concentration-inhibition curve.

For series [1], the target named is T1, CatK (Homo sapiens, UniProt P43235).
T1 construct: made in house; host or cells: Pichia pastoris
T1 sequence (P43235 115-329): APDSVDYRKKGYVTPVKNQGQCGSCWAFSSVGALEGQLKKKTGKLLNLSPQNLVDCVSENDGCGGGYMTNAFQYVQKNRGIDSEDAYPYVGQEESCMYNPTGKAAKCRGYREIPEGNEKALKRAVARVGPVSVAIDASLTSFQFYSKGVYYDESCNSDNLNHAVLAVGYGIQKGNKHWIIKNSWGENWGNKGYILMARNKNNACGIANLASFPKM
Description: Z-Phe-Arg-MCA cleavage assay with CatK. It is filed as biochemical. The conditions noted are these: 100 μM inhibitor, 5 nM CatK, 5 μM substrate, pH 5.5. How it is done:
(§1) The enzymatic activity of CatK was monitored by measuring the rate of release of the fluorogenic group, amino-methyl coumarin at an excitation wavelength of 380 nm and an emission wavelength of 450 nm using a Molecular Devices SpectraMax Gemini spectrofluorometer. Inhibitors were added prior to measurement of enzyme activity. The assays were performed at 25°C at a fixed enzyme concentrations (5 nM) and substrate concentration (5 μM) in 100 mM sodium acetate buffer, pH 5.5, containing 2.5 mM DTT and 2.5 mM EDTA. Z-Phe-Arg-MCA hydrolysis with trypsin was carried out in 50 mM Tris-HCl, pH 8.8 at 10 nM enzyme concentration.

The target in series [2] is T1, CatK. Description: CatK collagenase assay (type I collagen degradation, SDS-PAGE). The class given is biochemical. How it is done:
The collagenase inhibitory activities of all identified compounds were measured using a collagen degradation assay. Soluble bovine type I collagen (0.6 mg/mL) was incubated with 400 nM recombinant human CatK, in the presence or absence of 200 nM chondroitin 4-sulfate (C4-S) in 100 mM sodium acetate buffer, pH 5.5, containing 2.5 mM dithiothreitol (DTT) (Sigma-Aldrich Canada, Oakville, Ontario, Canada) and 2.5 mM ethylenediametetraacetate (EDTA) (Sigma-Aldrich). In the experiments involving detergent to minimize inhibitor aggregation, 0.001% or 0.005% Triton X-100 was added to the buffer with the inhibitor. The recombinant human CatK was expressed in Pichia pastoris and purified as previously described. Selected compounds identified by molecular docking were ordered from the National Cancer Institute through the Developmental Therapeutics Program (Rockville, MD). All compounds were dissolved in DMSO as a 20 or […] stock. […] After incubation at 28°C for 4 hours, 1 μM of E-64 was added to block the residual activity of CatK.
(§2) Digestion with MMP-1 was performed in 50 mM Tris-HCl, pH 7.4, containing 200 mM NaCl and 5 mM CaCl2 at 28°C for 4 h. Reactions were stopped by adding 25 mM EDTA as previously described. Samples were analyzed using 10% SDS-PAGE gels and stained with Coomassie. The resulting bands of α-collagen chains were quantitatively assessed using ImageJ (Version 1.5) and IC50 graphs were plotted using GraphPad Prism (GraphPad Software, Version 5.0, La Jolla California USA).

Series [3] deals with T2, MMP-1 (Homo sapiens, UniProt P03956).
T2 sequence (P03956 100-469): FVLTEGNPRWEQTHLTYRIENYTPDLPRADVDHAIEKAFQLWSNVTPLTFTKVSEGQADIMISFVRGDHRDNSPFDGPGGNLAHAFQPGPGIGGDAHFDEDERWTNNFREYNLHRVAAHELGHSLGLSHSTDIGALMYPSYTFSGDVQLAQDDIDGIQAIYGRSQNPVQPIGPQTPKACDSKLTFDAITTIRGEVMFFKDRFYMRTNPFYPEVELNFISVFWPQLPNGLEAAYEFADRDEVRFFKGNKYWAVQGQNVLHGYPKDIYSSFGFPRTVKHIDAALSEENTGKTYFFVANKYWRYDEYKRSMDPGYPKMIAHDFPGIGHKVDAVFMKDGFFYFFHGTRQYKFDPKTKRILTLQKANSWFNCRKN
Description: Gelatin degradation assay with MMP-1. It is filed as biochemical. As to conditions: 50 μM inhibitor, 10 nM MMP-1. As to the method: Gelatin (0.6 mg/mL) degradation assays were performed in the same manner as the collagen degradation experiments with 10 nM enzyme and were incubated at 37°C for one hour at the appropriate pH values for the individual proteases (CatK, pH 5.5; MMP-1, pH 7.4; trypsin, pH 8.8).

Series [4] deals with T2, MMP-1. Description: Collagen digestion with MMP-1. The class given is biochemical. As to conditions: 50 μM inhibitor, 400 nM MMP-1. As to the method: as §2
The next series deals with Yeast. Details: method as in earlier work. As to conditions: cited from earlier work.
For series [5], the system named is human osteoclasts. Nature of the series: Human osteoclast bone resorption assay on bone slices. The class given is cell-based. The conditions noted are these: for IC50: human osteoclasts on bone slices, read-out: IC50 for inhibition of trench eroded surface per bone surface (bone resorption). As to the method:
(§3) Osteoclasts were generated from mononuclear cells isolated from human bone marrow tissue (Lonza, Walkersville, MD). The bone marrow cells were centrifuged at 400 g for 5 min and the pellet was re-suspended in 10 mL α-MEM (α-Minimal Essential Media) and layered on 10 ml Ficoll-Plaque media solution. After centrifugation at 500 g for 30 min, the white interface containing the monocytes was harvested and washed twice with α-MEM. Cells were cultured in α-MEM containing 10% FBS and 25 ng/mL M-CSF for 24 hours and then cultured in 25 ng/mL RANKL and 25 ng/mL M-CSF for 7 days. Differentiated osteoclasts (100,000 cells per slice) were then seeded on each bone slice (5.5 mm diameter and 0.4 mm thickness; self-made) in the presence or absence of inhibitors and incubated for 72 hours at 5% CO2 and 37°C with the DMSO concentration at 0.1%. The inhibitor concentration range tested varied between 50 nM to 3 μM.
(§4) To compare the effects of the compounds on cell survival, the metabolic activity of osteoclasts was determined using the CellTiter-Blue Viability Assay (Promega, Madison, WI, USA). Bone slices from each condition (inhibitor-treated and control groups) were fixed in 4% formaldehyde and subsequently stained for tartrate-resistant acid phosphatase (TRAcP) activity (Acid Phosphatase, Leukocyte (TRAP) Kit; Sigma-Aldrich). Aliquots from cell culture media were used to determine the CTx-I concentration (MyBiosource ELISA kit, San Diego, CA). CTx-I is a CatK-specific C-terminal cleavage product of triple helical type I collagen. The total number of osteoclasts per bone slice was determined after TRAcP staining. Cells with ≥2 nuclei were counted as osteoclasts. After 72 h, bone slices from each condition were incubated in filtered water for cell lysis and cells were removed using a cotton stick. Subsequently the resorption cavities were stained with toluidine blue and observed by light microscopy. The number of resorption events and eroded bone surface area were determined as previously described. All light microscopic analyses were performed using a Nikon Eclipse LV100 microscope and a Nikon Eclipse Ci microscope.

Series [6] relates to human osteoclasts. Nature of the series: Osteoclast survival: CellTiter-Blue metabolic activity and osteoclast count after TRAcP staining. It is filed as cell-based. As to the method: as §3, §4
On the technique in general: The colour change of resazurin is a common sign of viable cells or microbes.

For the next series, the system named is trypsin. Description: Z-Phe-Arg-MCA hydrolysis with trypsin. It is filed as biochemical. The conditions noted are these: 50 μM (5,000-times molar excess). How it is done: as §1, with “Evaluation of a potential active site inhibition of the compounds was performed using the fluorogenic Benzyloxycarbonyl-Phe-Arg-7-amido-4-methylcoumarin (Z-Phe-Arg-MCA) substrate (Bachem Americas, Inc, Torrance, California, USA) as previously described. The enzymatic” for “The enzymatic”

The subject of series [7] is human osteoclasts. The conditions noted are these: cited from earlier work.
The test system of another series is ovariectomiced mice. Also on record: method as in PMID 28745432. The conditions noted are these: cited from earlier work.
Where [8] appears, read: 400 nM CatK, soluble bovine type I collagen 0.6 mg/mL, pH 5.5, 28°C, 4 h, read-out: Collagenase IC50.
[9] abbreviates: 1 μM inhibitor, 72 h, versus untreated.

As to `CCc1cc2nc3c(=O)[nH]c(=O)nc-3n(CCN(CCO)CCO)c2cc1CC` [compound 1, 10-[2-[bis(2-hydroxyethyl)amino]ethyl]-7,8-diethylbenzo[γ]pteridine-2,4-dione], 100 µM produced 9.5 ± 2.6% inhibition against CatK [1]. The IC50 is < 20 µM and 4.7 µM and ~5 µM at CatK [2] (setting [8]); 5.1 ± 1 µM at CatK [2] (Collagenase IC50 with 0.005% Triton X-100, in the presence of detergent, 0.005% Triton X-100); about 300 nM in the series on human osteoclasts [5] (Homo sapiens, Osteoclast, 72 h, 72 h); 312 ± 63 nM in the series with human osteoclasts [5] (72 h). Also, the “Collagenase IC50 with 0.005% Triton X-100” value at CatK [2] (in the presence of detergent, 0.005% Triton X-100) is on record as “not significantly different”. At MMP-1 [3], the “inhibitory activity for the gelatinase activity of MMP-1” value is listed as “no inhibitory activity; also recorded: did not show inhibition”. The “inhibitory activity towards the collagenase activity of MMP-1” value on MMP-1 [4] is given as “no inhibitory activity; also recorded: did not show inhibition”. In the series on Yeast, the “activity in NCI Yeast Anticancer Drug Screen” value was “active”. The Number of trenches entry with human osteoclasts [5] (setting [9]) is listed as “significant reduction”. Also, in the series on human osteoclasts [5] (setting [9]), the “percentage of eroded surface area / total eroded surface” value is “very effective in reducing the total eroded surface; also recorded: significant reduction”. Also, the “overall potency, times lower than odanacatib” value with human osteoclasts [5] (osteoclast resorption assay, versus odanacatib) is recorded as 15–20 times. In addition, in the series on human osteoclasts [6] (CellTiter-Blue, compared with untreated cells), the “Metabolic activity of osteoclasts” value is “no significant differences”. Also, the number of osteoclasts result in the series on human osteoclasts [6] (TRAcP staining, compared with untreated cells) was “no significant differences”. Besides, the cell toxicity result in the series on human osteoclasts [6] (osteoclast bone resorption assays) is “no cell toxicity effects”.
On to `CN(C)CCNc1ccc2ncn3c4ccc(O)cc4c(=O)c1c23` [compound 2, 2-((8-hydroxy-6-oxo-6H-imidazo[4,5,1-de]acridin-5-yl)amino)-N,N-dimethylethanaminium], for which, at CatK [1], the inhibition at 100 µM turned out to be 6.1 ± 3.9%. At CatK [2] (setting [8]), the IC50 was < 20 µM and 7.6 µM.
Compound `CCc1nc2ccc(NCCN(C)C)c3c(=O)c4ccccc4n1c23` [compound 4, 5-(2-(dimethylamino)ethylamino)-1-ethyl-6H-imidazo[4,5,1-de]acridin-6-one] displayed an inhibition at 100 µM on CatK [1] of 2.3 ± 0.9%. Besides, on CatK [2] (setting [8]), the IC50 is < 20 µM and 9.9 µM.
As for `CCN(CC)CCNc1ccc2ncn3c4ccccc4c(=O)c1c23` [compound 5, 5-{[2-(diethylamino)ethyl]amino}-6H-imidazo[4,5,1-de]acridin-6-one hydrochloride (1:1)], at CatK [1], testing at 100 µM gave an inhibition of 3.7 ± 0.7%. Moreover, the IC50 at CatK [2] (setting [8]) was < 20 µM and 13 µM.
Consider `Cc1c2c(c(O)c3c(O)cccc13)C(=O)C1(O)C(=O)C(C(N)=O)C(O)C(N(C)C)C1C2` (stereo not shown) [compound 6, 4-(dimethylamino)-3,10,11,12a-tetrahydroxy-6-methyl-1,12-dioxo-3,4,4a,5-tetrahydro-2H-tetracene-2-carboxamide], for which testing at 100 µM against CatK [1] gave an inhibition of 11.5 ± 2.6%. The IC50 at CatK [2] (setting [8]) was ~35 µM and 34.8 µM. In addition, in the series with trypsin, the “inhibition of Z-Phe-Arg-MCA degradation by trypsin” value is on record as 60%.
In turn, `O=C(Nc1cccc(C(=O)Nc2cccc(C3=NCCN3)c2)c1)Nc1cccc(C(=O)Nc2cccc(C3=NCCN3)c2)c1` [compound 8, N-[3-(4,5-dihydro-1H-imidazol-2-yl)phenyl]-3-[[3-[[3-(4,5-dihydro-1H-imidazol-2-yl)phenyl]carbamoyl]phenyl]carbamoylamino]benzamide hydrochloride] had an inhibition at 100 µM at CatK [1] of 7.2 ± 3.6%. On CatK [2] (setting [8]), the IC50 is 12.8 µM and < 20 µM.
In the case of `CCN(CC)CC1=C/C(=N/NC2=C3C=CC(=O)C(NNc4ccc(O)c(CN(CC)CC)c4)=C3C=CC2=O)C=CC1=O.Cl` [compound 9, 1-[2-[3-(diethylaminomethyl)-4-hydroxyphenyl]hydrazinyl]-5-[(2E)-2-[3-(diethylaminomethyl)-4-oxocyclohexa-2,5-dien-1-ylidene]hydrazinyl]naphthalene-2,6-dione hydrochloride], testing at 100 µM on CatK [1] gave an inhibition of 3.2 ± 0.8%. Also, the IC50 at CatK [2] (setting [8]) is under 20 µM. For the same compound, the “activity in NCI Yeast Anticancer Drug Screen” value with Yeast is on record as “active”.
Turning to `CC1CN=C(c2cccc(NC(=O)c3ccc(C(=O)Nc4cccc(C5=NCC(C)N5)c4)c(N)c3)c2)N1` (stereo not shown) [compound 80116], the IC50 on CatK [2] (setting [8]) was found to be 89 µM.
Still for that read-out and setting: the same measure for `CSCCC(NCC(N)Cc1ccc2ccccc2c1)C(=O)NCc1cccc(C(=O)NC(CNC(CC(C)C)C(=O)O)Cc2ccccc2)c1` (stereo not shown) [compound 719315]: 88 µM.
As for `CC(C)(F)C[C@H](N[C@@H](c1ccc(-c2ccc(S(C)(=O)=O)cc2)cc1)C(F)(F)F)C(=O)NC1(C#N)CC1` [odanacatib], the IC50 with human osteoclasts [7] (read-out: IC50 for human-osteoclast-mediated bone resorption) was 14.6 nM.
Take `Cc1c(S(=O)(=O)O)oc2c1C(=O)C(=O)c1c-2ccc2c1CCCC2(C)C` [tanshinone IIA sulfonate]: in the series on human osteoclasts [7] (read-out: IC50 in osteoclast resorption assay), the IC50 is 240 nM. Besides, in the series on ovariectomiced mice, the “efficacy in ovariectomiced mice” value is listed as “showed efficacy”.
